# According to ChEMBL document CHEMBL4673389 (ACS Med Chem Lett, 2021):
# Active and inactive are the calls of the source. The calls are words filed in the database; no cut-off is given here.
# Target: T1, Protein cereblon (Homo sapiens, UniProt Q96SW2)
# Assay: Competitive binding affinity to human CRBN-thalidomide binding domain expressed in Escherichia coli by FRET assay
row,Structure (SMILES),Ki
1,C[S+](C)[O-] [DIMETHYL SULFOXIDE],137 µM

# Target: T1, Protein cereblon
# Assay: Binding affinity to human CRBN-thalidomide binding domain expressed in Escherichia coli by measuring baseline corrected normalized fluorescence by MST based assay
Structure (SMILES),IC50,Ki,Activity
O=c1ccn([C@@H]2O[C@H](COP(=O)(O)O)[C@@H](O)[C@H]2O)c(=O)[nH]1,> 5000 µM,,
O=C1CNCN1,> 5000 µM,,
NN1CC(=O)NC1=O,447 µM,229 µM,
CN1CC(=O)NC1=O,137 µM,67.8 µM,
Nn1ccc(=O)[nH]c1=O,84.8 µM,40.7 µM,
O=C1CN(/N=C/c2ccc([N+](=O)[O-])o2)C(=O)N1,,,inactive
O=C1CN(/N=C/c2ccccc2)C(=O)N1,,,inactive
O=C1CN(/N=C/c2ccccc2[N+](=O)[O-])C(=O)N1,,,inactive
O=C1CN(/N=C/c2ncc(-c3ccc(Br)cc3)o2)C(=O)N1,,,inactive
COc1c(-c2ccc3cc(NS(C)(=O)=O)ccc3c2)cc(-n2ccc(=O)[nH]c2=O)cc1C(C)(C)C [DASABUVIR],15.6 µM,4.71 µM,
O=C1CN(/N=C/C=C/c2ccc([N+](=O)[O-])o2)C(=O)N1 [FURAZIDIN],> 1000 µM,,
O=C1CNC(=O)N1 [HYDANTOIN],421 µM,216 µM,
COc1ccc(C2CNC(=O)C2)cc1OC1CCCC1 (stereo unspecified) [ROLIPRAM],202 µM,102 µM,
CC(C)OC(=O)[C@H](C)N[P@](=O)(OC[C@H]1O[C@@H](n2ccc(=O)[nH]c2=O)[C@](C)(F)[C@@H]1O)Oc1ccccc1 [SOFOSBUVIR],> 1000 µM,,
O=C1CCC(=O)N1 [SUCCINIMIDE],22.3 µM,8.19 µM,
O=C1CNC(=S)N1 [THIOHYDANTOIN],332 µM,169 µM,
O=c1cc[nH]c(=O)[nH]1 [URACIL],415 µM,212 µM,
O=c1ccn([C@@H]2O[C@H](CO)[C@@H](O)[C@H]2O)c(=O)[nH]1 [URIDINE],757 µM,390 µM,

# Target: T2, Cereblon isoform 4 (Magnetospirillum gryphiswaldense, UniProt A4TVL0)
# T2 sequence (A4TVL0 whole entry): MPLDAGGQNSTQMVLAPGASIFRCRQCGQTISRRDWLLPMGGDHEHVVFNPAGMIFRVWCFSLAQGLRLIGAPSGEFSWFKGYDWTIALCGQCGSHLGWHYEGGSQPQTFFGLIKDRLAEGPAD
# Assay: Binding affinity to Magnetospirillum gryphiswaldense cereblon isoform 4 by measuring baseline corrected normalized fluorescence by MST based assay
Structure (SMILES),IC50,Ki
O=C1CCC(=O)N1 [SUCCINIMIDE],3.53 µM,0.642 µM
